The record followed here is PubChem BioAssay (NCI).

Molecules are shown by their SMILES.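 Interpolation was linear, between the two tested concentrations surrounding the appropriate level; five concentrations were tested over 48 hours in 96-well plates. GI50 marks 50% less growth. TGI denotes the concentration required for complete inhibition of growth.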

Test systems include SF-268 CNS; UACC-257 melanoma; LOX IMVI melanoma; MCF7 breast; OVCAR-5 ovarian; U251 CNS; RXF 393 renal; HCC-2998 colon; COLO 205 colon; TK-10 renal.
Common to all, as to assay: NCI anticancer screen, dose series, 48 h

Turning to `OC1CCN2Cc3ccccc3N=C12` (configuration not stated), the TGI in the assay with SF-268 CNS, with UACC-257 melanoma, in the assay with LOX IMVI melanoma, with MCF7 breast, in the assay with OVCAR-5 ovarian and with U251 CNS was more than 100 µM throughout. In addition, the TGI with RXF 393 renal, with HCC-2998 colon, in the assay on COLO 205 colon and with TK-10 renal was more than 100 µM each time.
`CC1OC1C(=O)P(=O)(O)O` (configuration not stated): the TGI in the assay on SF-268 CNS, with UACC-257 melanoma, with LOX IMVI melanoma, in the assay with MCF7 breast, in the assay with OVCAR-5 ovarian and in the assay on U251 CNS was more than 100 µM in each case. For the same compound, the TGI in the assay with HCC-2998 colon, with COLO 205 colon and in the assay with TK-10 renal was more than 100 µM in each case.
Consider `COc1ccccc1C1C(C#N)=C(N)SC(N)=C1C#N`, for which the GI50 with SF-268 CNS is 48.9 µM; with UACC-257 melanoma, more than 100 µM; with LOX IMVI melanoma, 50.2 µM; with MCF7 breast it was 30.6 µM; in the assay on OVCAR-5 ovarian it was more than 100 µM; in the assay on U251 CNS, 54 µM. Moreover, the GI50 in the assay on RXF 393 renal, with HCC-2998 colon, in the assay on COLO 205 colon and in the assay on TK-10 renal was more than 100 µM each time. Besides, the TGI with SF-268 CNS, in the assay on UACC-257 melanoma, in the assay on LOX IMVI melanoma, with MCF7 breast, in the assay on OVCAR-5 ovarian and in the assay on U251 CNS was more than 100 µM in each case. Besides, the TGI in the assay with RXF 393 renal, with HCC-2998 colon, in the assay on COLO 205 colon and with TK-10 renal was more than 100 µM throughout.
As for `NCC(=O)N[C@H]1c2ccsc2/C(=N/O)[C@H]1O`, the TGI in the assay with UACC-257 melanoma, with LOX IMVI melanoma, in the assay on MCF7 breast, in the assay with OVCAR-5 ovarian, with U251 CNS and with RXF 393 renal was more than 100 µM in each case. For the same compound, the TGI in the assay on HCC-2998 colon, in the assay with COLO 205 colon and in the assay with TK-10 renal was more than 100 µM each time.
For `Cc1ccccc1NC(=O)C(=O)C(C1OC(=O)c2ccccc21)[N+](=O)[O-]` (configuration not stated), the TGI with SF-268 CNS, in the assay on UACC-257 melanoma, in the assay with LOX IMVI melanoma, with OVCAR-5 ovarian, in the assay on U251 CNS and in the assay with RXF 393 renal was more than 100 µM in each case. The TGI in the assay with HCC-2998 colon, in the assay with COLO 205 colon and with TK-10 renal was more than 100 µM in each case.
